Experiment: Distribution of intraperitoneally injected NRH to whole blood, kidney and liver (LCMS/MS)
Format: in vivo, Wistar Han rat
Conditions: single intraperitoneal injection, 500 mg/kg, after 4 hr
Experimental: Freshly weighed NRH (100 mg) was dissolved in 500 μL sterile IP water. The NRH solution was intraperitoneally injected into a healthy, male Wistar Han rat (200 g) at a single dose of 500 mg/kg. 500 μL of sterile IP water was intraperitoneally injected into another healthy, male Wistar Han rat (200 g) as a control.
The animals were euthanized by cervical dislocation under anesthesia after 4 hr. Whole blood was collected in K2EDTA vacutainer tubes by cardiac puncture using a 2 mL syringe. The liver and kidney were harvested subsequently by dissection. The tissues were placed in a petridish, rinsed with ice-cold saline, and then weighed. 72 mg of liver of the treated animal and 74.3 mg of liver of the untreated animal were homogenized, and 71.6 mg of kidney of the treated animal and 70.7 mg of kidney of the untreated animal were homogenized. Homogenization of the tissues was carried out separately in 3 mL of ice-cold methanol (about 20 mg/mL of tissue in methanol). The homogenate was snap-frozen in liquid nitrogen and maintained at −80° C. for analysis. The blood samples were maintained at 2-8° C. for analysis.
250 μL of whole blood from the K2EDTA tubes was added to a tube containing 50 μL of 500 ng/ml of tolbutamide as the internal standard. 600 μL of ice-cold HPLC-grade methanol was added to this mixture for extraction of nicotinamide adenine dinucleotide (NAD^+) and NRH. The resulting mixture was mixed well and centrifuged at 12500 rpm for 10 min. The supernatant was measured for NAD^+ and NRH by LCMS/MS. For the liver and kidney tissues, 250 μL of the tissue homogenate was processed in the same manner.

NC(=O)C1=CN([C@@H]2O[C@H](CO)[C@@H](O)[C@H]2O)C=CC1 [NRH, N-(β-D-ribofuranosyl)dihydronicotinamide]
increased concentrations: concentration of NRH in the kidney (area ratio NRH/IS) versus vehicle | concentration of NRH in the liver (area ratio NRH/IS) versus vehicle | concentration of NRH in whole blood (area ratio NRH/IS) versus vehicle

Source: US20250367229A1, “Treatment of Immune-Related Disorders, Kidney Disorders, Liver Disorders, Hemolytic Disorders, and Oxidative Stress-Associated Disorders Using NRH, NARH and Reduced Derivatives Thereof” (MitoPower LLC, priority 2021, published 2025)
